These results are taken from patent publication US10059669B2, “2-amino-3,5-difluoro-3,6-dimethyl-6-phenyl-3,4,5,6-tetrahydropyridines as BACE1 inhibitors for treating alzheimer's disease” (H. Lundbeck A/S, priority 2014, dated 2018).

Like-named read-outs stand apart in the source and are kept apart here.

For data set [1], the target named is T1, BACE1 (Homo sapiens (Human), UniProt P56817). Nature of the data set: BACE1 efficacy assay (FRET-based, commercial BACE1 kit). To be noted: 10 μM test compound. It counts as biochemical. The protocol: The efficacy assay was performed as a FRET-based assay using a commercially available BACE1 kit (Life Technologies, P2985). 2 μl test compound at 10 μM (final concentration) and 15 μl BACE1 enzyme from the kit (final concentration 3 nM) were preincubated for 15 minutes at room temperature before addition of 15 μl of substrate from the kit (250 nM final concentration) and incubated for additional 90 minutes at room temperature. The assay plate was subsequently read in a Pherastar (Ex540/Em590). The enzyme activity observed in presence of test compound were normalized to the enzyme activity observed in presence of buffer and 10 μM (final concentration) of the high affinity BACE1 reference inhibitor (S)-6-[3-Chloro-5-(5-prop-1-ynyl-pyridin-3-yl)-thiophen-2-yl]-2-imino-3,6-dimethyl-tetra-hydropyrimidin-4-one, respectively. The efficacy of the test compounds was evaluated at 10 μM (final concentration) and defined as the percent inhibition of the enzyme activity using the equation % inhibition=100%−normalized enzyme activity in percent.

The target in data set [2] is T1, BACE1. Nature of the data set: BACE1 binding assay (SPA-based radioligand binding). To be noted: pH 4.5, 10 nM radioligand, Ki calculated from IC50. On the procedure: The binding assay was performed as SPA-based assay using a biotinylated form of human BACE1 recombinantly expressed and subsequently purified from Freestyle HEK293 cells. The binding assay was run in a 50 mM sodium acetate buffer, pH 4.5 containing 50 mM NaCl and 0.03% Tween-20 in white clear bottom 384 plates (Corning #3653). 10 nM (final concentration) radioligand ([^3H]—N-((1S,2R)-1-benzyl-3-cyclopropylamino-2-hydroxy-propyl)-5-(methanesulfonyl-methyl-amino)-N—((R)-1-phenyl-ethyl)-isophthalamide) (TRQ11569 purchased from GE Healthcare) was mixed with test compound at a given concentration, 6 nM (final concentration) human BACE1 and 25 μg Streptavidin coated PVT core SPA beads (RPNQ0007, GE Healthcare Life Sciences) in a total volume of 40 μl. Several concentrations of each test compound were tested in the assay for IC50 determination. The plates were incubated for one hour at room temperature and counted in a Wallac Trilux counter. Total and non-specific binding were determined using buffer and 1 μM (final concentration) of the high affinity BACE1 reference inhibitor (S)-6-[3-chloro-5-(5-prop-1-ynyl-pyridin-3-yl)-thiophen-2-yl]-2-imino-3,6-dimethyl-tetrahydro-pyrimidin-4-one, respectively. For each test compound, a IC50 value (the concentration mediating 50% inhibition of the specific binding of the radioligand) was determined from concentration-response curve and used to calculate the Ki from the equation Ki=IC50/(1+L/Kd), where L and Kd are the final concentration of the radioligand used in the assay and the dissociation constant of the radioligand, respectively. The Kd of the radioligand was determined from saturation binding experiments.

In a further data set the test system is P-gp (MDR1). Nature of the data set: MDCK-MDR1 assay (permeability, efflux ratio). It is filed as in vitro ADME. The note with it: dog, Papp BA/Papp AB, 60-minute incubation, Pgp substrate when ≥2. On the procedure: The permeability of the test compounds was assessed in MDCK-MDR1 cells that were cultured to confluency (4-6 days) in a 96 transwell plate. Test compounds were diluted with the transport buffer (HBSS+1% BSA) to a concentration of 0.5 μM and applied to the apical or basolateral side of the cell monolayer. Permeation of the test compounds from A to B direction or B to A direction was determined in triplicate over a 60-minute incubation time at 37° C. and 5% CO2 with a relative humidity of 95%. Test compounds were quantified by LC-MS/MS analysis based on the peaks area ratios of analyte/IS in both the receiver and donor wells of the transwell plate.
The apparent permeability coefficient Papp (cm/s) was calculated using the equation: Papp=(dCr/dt)×Vr/(A×C0)
Where dCr/dt is the cumulative concentration of compound in the receiver chamber as a function of time (M/s); Vr is the solution volume in the receiver chamber (0.05 mL on the apical side; 0.25 mL on the basolateral side); A is the surface area for the transport, i.e. 0.0804 cm^2 for the area of the monolayer; C0 is the initial concentration in the donor chamber (VIM).
Compounds are classified Pgp substrates when efflux ratio (Papp BA/Papp AB) is ≥2.

A short description of data set [3]: Bioanalysis of brain and plasma samples (exposure, UPLC-MS/MS). It counts as in vivo, rat. To be noted: male, Sprague Dawley, po, 3 hours post dose; for Kp at 3 h: brain and plasma, Rat, read-out: Brain/Plasma ratio; for concentration at 3 h: read-out: Exp. The protocol:
Young adult Male Sprague Dawley rats of approximately 250 g weight were purchased from Charles River and received 0-30 mg/kg of vehicle (10% HP betaCD+1M MeSO4, pH 2.5) or test compounds (dissolved in vehicle) only by oral gavage (p.o). The compounds are dosed at a volume of 5 ml/kg. Cohorts of 5-10 animals were established for each treatment condition.
At T=180 minutes after initial dosing the animals were stunned and decapitated with a guillotine. Trunk-blood was sampled in EDTA coated tubes after decapitation of the animal. The blood was centrifuged at 2200G at 4° C. for 15 minutes and the plasma was collected and frozen at −80° C. The blood was aliquoted for Aβ ELISA and DMPK analysis. Immediately following sacrifice, the brain was extracted and split into 2 halves. The right hemibrains were snap frozen on dry ice and stored at −80° C. The left half was dissected; with the front forebrain taken for Aβ ELISA and the remainder used for DMPK analysis. These samples were also snap frozen on dry ice and stored at −80° C. until use for analysis. […]
TC was determined in plasma and brain homogenate using UltraPerformance LC® (UPLC®) chromatography followed by tandem-MS (MS/MS) detection.
Brain homogenate was prepared by homogenizing the brain 1:4 (v/v) with water:2-propanol:DMSO (50:30:20 v/v/v) followed by centrifugation and collection of the supernatant. Calibration standards and QC samples were prepared using a Hamilton robot. 150 μL of ISTD in acetonitrile (1 ng/mL ISTD) was added to 25 μL of calibration standards, QC samples and test samples (plasma and brain homogenate) using a Biomek robot. After centrifugation (6200 g, 4° C., 20 min) 100 μL supernatant from each sample was transferred to a new plate and mixed with 100 μL water with 0.1% formic acid using a Biomek robot (method file InVivo transfer). After a quick centrifugation (6200 g, 4° C., 5 min) the samples were placed in the auto-sampler.
MS/MS detection was done with an Applied Biosystems Sciex API 4000 instrument in positive-ion electrospray ionisation mode. TC and ISTD were detected at a parent>daughter mass to charge ratio (m/z). Nitrogen was used for the nebulizer and collision gases. The peak area correlated linearly with the plasma and brain concentration of the analytes in the range of 1.00-1000 ng/mL plasma and 5.00-5000 ng/g brain (corrected for dilution). If the plasma/brain sample drug concentration was above 1000 ng/mL or 5000 ng/g, the sample was diluted appropriately in blank plasma/blank brain homogenate before analysis.

T1 sequence (P56817 46-501): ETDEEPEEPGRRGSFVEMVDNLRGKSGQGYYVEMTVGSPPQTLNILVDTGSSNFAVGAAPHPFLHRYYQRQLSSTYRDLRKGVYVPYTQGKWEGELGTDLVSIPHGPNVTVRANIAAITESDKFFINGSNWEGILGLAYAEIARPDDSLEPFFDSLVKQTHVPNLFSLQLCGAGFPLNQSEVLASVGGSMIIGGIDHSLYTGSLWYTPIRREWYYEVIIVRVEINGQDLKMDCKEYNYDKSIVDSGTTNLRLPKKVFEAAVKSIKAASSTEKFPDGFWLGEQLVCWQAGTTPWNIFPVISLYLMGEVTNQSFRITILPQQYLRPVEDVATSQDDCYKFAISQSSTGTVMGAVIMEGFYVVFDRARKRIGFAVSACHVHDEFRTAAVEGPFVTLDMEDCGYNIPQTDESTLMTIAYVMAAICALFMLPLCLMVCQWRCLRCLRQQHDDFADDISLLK

For the compound `COc1ccc(C(=O)Nc2ccc(F)c([C@@]3(C)N=C(N)[C@@](C)(F)C[C@@H]3F)c2)nc1` [Compound 3, N-(3-((2R,3S,5S)-6-amino-3,5-difluoro-2,5-dimethyl-2,3,4,5-tetrahydropyridin-2-yl)-4-fluorophenyl)-5-methoxypicolinamide], at BACE1 [1], the inhibition at 10 µM was found to be 102%. For the same compound, at BACE1 [2], the Ki is 23 nM. For the same compound, the efflux ratio at 60 min, 0.5 μM in the data set on P-gp (MDR1) came out at 0.96. In addition, the Kp at 3 h in data set [3] (10 mg/kg p.o.) was determined as 1.4; in data set [3] (30 mg/kg p.o.), 0.83. The concentration at 3 h was found to be 671 ng/g in data set [3] (Brain Rat, 10 mg/kg p.o.); 1510 ng/g in data set [3] (Brain Rat, 30 mg/kg p.o.); 489 ng/g in data set [3] (Plasma Rat, 10 mg/kg p.o.); 1830 ng/g in data set [3] (Plasma Rat, 30 mg/kg p.o.).
For `[2H]C([2H])([2H])Oc1ccc(C(=O)Nc2ccc(F)c([C@@]3(C)N=C(N)[C@@](C)(F)C[C@@H]3F)c2)nc1` [Compound 19, N-(3-((2R,3S,5S)-6-amino-3,5-difluoro-2,5-dimethyl-2,3,4,5-tetrahydropyridin-2-yl)-4-fluorophenyl)-5-(methoxy-d3)picolinamide], the inhibition at 10 µM against BACE1 [1] was 106%. Further, the Ki on BACE1 [2] is 20 nM. In addition, in the data set with P-gp (MDR1), the efflux ratio at 60 min, 0.5 μM was 0.79. For the same compound, the values for the Kp at 3 h in data set [3] (10 mg/kg p.o.) and in data set [3] (30 mg/kg p.o.) were 2.2 and 2.3, respectively. Also, the concentration at 3 h in data set [3] (Brain Rat, 10 mg/kg p.o.) was found to be 1020 ng/g; in data set [3] (Brain Rat, 30 mg/kg p.o.), 2770 ng/g; in data set [3] (Plasma Rat, 10 mg/kg p.o.) it was 473 ng/g; in data set [3] (Plasma Rat, 30 mg/kg p.o.), 1200 ng/g.
Turning to `[2H]C([2H])([2H])Oc1cnc(C(=O)Nc2ccc(F)c([C@@]3(C)N=C(N)[C@@](C)(F)C[C@@H]3F)c2)cn1` [Compound 20, N-(3-((2R,3S,5S)-6-amino-3,5-difluoro-2,5-dimethyl-2,3,4,5-tetrahydropyridin-2-yl)-4-fluorophenyl)-5-(methoxy-d3)pyrazine-2-carboxamide], the inhibition at 10 µM at BACE1 [1] was 106%. The Ki on BACE1 [2] was 21 nM. In addition, in the data set with P-gp (MDR1), the efflux ratio at 60 min, 0.5 μM was 0.85. The Kp at 3 h in data set [3] (3 mg/kg p.o.) came to 2.2. The concentration at 3 h in data set [3] (Brain Rat, 3 mg/kg p.o.) amounted to 610 ng/g; in data set [3] (Plasma Rat, 3 mg/kg p.o.), 272 ng/g.

The term inhibition denotes the change of the read-out against control, counted positive when it falls. In general, Ki refers to the dissociation constant of the complex between target and ligand, obtained from inhibition or displacement. As usually defined, the efflux ratio is a quotient of directional permeabilities that is used to spot active efflux.
